From article PMC11830721 (Frontiers in Pharmacology, 2025)

Assays:
MV4-11 cells = test: MTT anti-proliferation assay, MV4-11; type: cell-based; conditions: Homo sapiens, 72-h treatment
Experimental: In addition, the normal hematopoietic cell line was COLO 829BL from ATCC. The cells were maintained in RPMI-1640 medium supplemented with 10% FBS, and 1% penicillin and streptomycin. The cells were cultured in an incubator at 37°C with 5% CO2. […] The high-performance liquid chromatography (HPLC) spectra data for each compound are provided in the (Supplementary Figures S1–S6).
The effects of the test compounds on MV4-11, NB4, and COLO 829BL cell lines were quantitatively evaluated according to the methods previously reported ([Zhou et al., 2022]).

FLT3-ITD [1] = target: T1, FLT3-ITD (Homo sapiens, UniProt P36888, ITD); test: ADP-Glo kinase-inhibition assay; type: biochemical; conditions: ADP-Glo; ATP 100 μM; FLT3-ITD 10 ng/μL
T1 sequence (P36888 27-993): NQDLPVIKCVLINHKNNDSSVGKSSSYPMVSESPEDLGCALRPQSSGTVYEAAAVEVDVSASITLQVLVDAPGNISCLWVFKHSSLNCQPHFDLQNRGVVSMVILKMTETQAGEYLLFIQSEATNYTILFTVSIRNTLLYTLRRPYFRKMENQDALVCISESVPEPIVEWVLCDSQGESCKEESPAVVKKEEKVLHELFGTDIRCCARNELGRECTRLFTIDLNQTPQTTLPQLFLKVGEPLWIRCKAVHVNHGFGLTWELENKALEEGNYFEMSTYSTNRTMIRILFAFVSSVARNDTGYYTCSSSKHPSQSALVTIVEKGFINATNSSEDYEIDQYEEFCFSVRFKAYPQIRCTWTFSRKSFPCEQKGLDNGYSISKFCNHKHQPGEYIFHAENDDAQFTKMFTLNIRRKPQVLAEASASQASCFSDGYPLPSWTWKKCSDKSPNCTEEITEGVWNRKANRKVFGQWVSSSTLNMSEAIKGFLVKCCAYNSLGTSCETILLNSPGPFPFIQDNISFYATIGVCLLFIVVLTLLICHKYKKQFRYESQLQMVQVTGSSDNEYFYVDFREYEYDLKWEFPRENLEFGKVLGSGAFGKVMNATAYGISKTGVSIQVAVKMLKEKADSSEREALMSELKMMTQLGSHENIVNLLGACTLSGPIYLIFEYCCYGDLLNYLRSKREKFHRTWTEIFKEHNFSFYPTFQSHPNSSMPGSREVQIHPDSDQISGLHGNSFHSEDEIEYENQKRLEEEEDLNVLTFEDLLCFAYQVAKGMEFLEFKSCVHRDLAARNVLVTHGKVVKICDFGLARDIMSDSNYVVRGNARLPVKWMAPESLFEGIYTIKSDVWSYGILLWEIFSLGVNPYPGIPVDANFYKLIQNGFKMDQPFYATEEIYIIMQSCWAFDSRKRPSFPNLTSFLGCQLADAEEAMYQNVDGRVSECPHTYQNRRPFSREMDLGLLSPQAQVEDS
Experimental: Subsequently, the kinase detection reagent was added and incubated for an additional 15 min. Finally, the mixture was incubated for 1 h, and relative luminescence units (RLU) were measured.
Moreover, we extended the kinase selectivity profiling of FLIN-4 to evaluate its inhibitory activity against 60 non-target kinases.

FLT3-ITD [2] = target: T1, FLT3-ITD; test: Microscale thermophoresis (MST) binding affinity; conditions: 50 mM Tris, 230 mM NaCl, pH 7.0, labeled protein 50 nM
Experimental: The protein was labeled with a fluorescence tag utilizing a Lys Labeling Kit (NanoTemper), with a final concentration of 50 nM being achieved. Adhering to the manufacturer’s guidelines, the compounds were titrated from an initial concentration of 12.5 μM with a 1:1 dilution ratio. Next, each sample was centrifuged at 15,000 rpm for 5 min, followed by loading into standard glass capillaries for MST analysis.

Compound | IC50 (MV4-11 cells) | IC50 (FLT3-ITD [1]) | Kd (FLT3-ITD [2])
CCc1nc(C(N)=O)c(Nc2ccc(N3CCC(NC4CCCCC4)CC3)c(OC)c2)nc1NC1CCOC(C(O)CO)C1 (stereo not drawn) [FLIN-3] | 3.03 ± 0.27 nM | 2.85 ± 0.22 nM | 2.19 ± 0.33 nM
CCc1nc(C(N)=O)c(Nc2ccc(N3CCC(NC4CCCC4)CC3)c(OC)c2)nc1NC1CCOC(C(O)CO)C1 (stereo not drawn) [FLIN-2] | 5.54 ± 0.41 nM | 4.98 ± 0.35 nM | 3.62 ± 0.41 nM
CCc1nc(C(N)=O)c(Nc2ccc(N3CCC(NC4CC4)CC3)c(OC)c2)nc1NC1CCOC(C(O)CO)C1 (stereo not drawn) [FLIN-1] | 12.2 ± 0.94 nM | 10.2 ± 0.81 nM | 8.74 ± 0.52 nM

Next, values leading:

IC50 (MV4-11 cells) | IC50 (FLT3-ITD [1]) | Kd (FLT3-ITD [2]) | Compound
8.28 ± 0.54 nM | 6.39 ± 0.47 nM | 5.26 ± 0.42 nM | CCc1nc(C(N)=O)c(Nc2ccc(N3CCC(NC(CC)CC)CC3)c(OC)c2)nc1NC1CCOC(C(O)CO)C1 (stereo not drawn) [FLIN-6]
17.7 ± 1.03 nM | 14.5 ± 0.98 nM | 12.5 ± 1.05 nM | CCCNC1CCN(c2ccc(Nc3nc(NC4CCOC(C(O)CO)C4)c(CC)nc3C(N)=O)cc2OC)CC1 (stereo not drawn) [FLIN-5]
